Test results taken from US10172875B2, “Therapeutic combinations comprising anti-FOLR1 immunoconjugates” (ImmunoGen, Inc., priority 2015, dated 2019).

Assays:
[1] = tested on: ST088 human epithelial ovarian cancer patient derived tumor xenografts; assay: Antitumor activity of IMGN853, PLD and combination in ST088 tumor model (Example 1); assay type: in vivo, SCID mice
Experimental: Tumor volumes were measured twice weekly in three dimensions using a caliper. […] FIG. 1 depicts the results.

OV-90 xenografts = assay: OV-90 tumors harvested 4 days post-dosing: histology, γH2AX, CD31, anti-maytansine (FIGS. 12A-12C); assay type: in vivo, mice; details: IMGN853 2.5 mg/kg and/or bevacizumab 5 mg/kg
Experimental: Original magnification, 4×; scale bars, 2 mm (for Combination panel, 600 μm).
For each group, representative micrographs from one of three tumors are shown. Original magnification, 20×; scale bars, 200 μm.
Next, as a pharmacodynamic readout, tumor γH2AX levels were measured by immunoblotting (FIG. 12B).
While genotoxic insults are the primary inducers of γH2AX, accumulation of this protein can also occur in response to hypoxia. […] In order to examine treatment-related effects on microvessels, immunohistochemical staining with the endothelial cell marker CD31 was performed (FIG. 12C, upper panel).

[2] = tested on: OV90 serous ovarian tumor xenografts; details: IMGN853 5 mg/kg 1× and/or bevacizumab 5 mg/kg 1×
Experimental: Mice were randomized into groups (n=6 per group) by tumor volume and subsequently dosed on Day 14 post-inoculation.
Tumor volumes were measured one to two times weekly in three dimensions using a caliper. The tumor volume was expressed in mm^3 using the formula V=Length×Width×Height×½ (Tomayko and Reynolds, Cancer Chemother. Pharmacol. 24:148-54 (1989)) Body weights were measured twice per week as an index of toxicity. Activity was assessed as described in Bissery et al. (1991).

[3] = IMGN853 5 mg/kg QWx2 and/or PLD 4 mg/kg QWx2
[4] = IMGN853 5 mg/kg QWx2 and/or PLD 4 mg/kg QWx2, responders/animals

Substance: IMGN853
- tolerability / body weight ([1]; IMGN853 5 mg/kg QWx2): well tolerated with no notable body weight loss observed
- T/C [1, 3]: 31%
- antitumor activity rating [1, 3]: active
- complete responses (CR) [1, 4]: 0/8
- partial responses (PR) [1, 4]: 0/8
- tumor γH2AX levels by immunoblotting (OV-90 xenografts; 4 days post-dosing): robustly induced
- tumor microvessels, CD31 immunohistochemical staining (OV-90 xenografts; day 4): numerous large vessels
- T/C [2]: 36%
- antitumor activity rating [2]: active
- tumor free survivors (TFS) [2]: 0/5
- CR ([2]; responders/animals): 1/5
